Data as given in US20250339419A1, “METHODS OF TREATING OCULAR INFLAMMATORY DISEASES” (priority 2021, published 2025).
“And” between values parts separate entries of the source, which are not always exact repeats. Equal entries are not always repeated. “Also recorded” adds a separate entry of the source. Where two headings read alike, the source gives them in different places.

Tests used:
[1] = Phase 1 double-masked multiple-dose plasma PK study of roflumilast topical ophthalmic suspension (0.3%); assay type: in vivo, human; settings: for plasma profile, fluctuation between peak (Cmax) and trough (pre-dose): Day 8; for accumulation ratios (RAUC0-12): by Day 8, mean (SD)
Experimental: A pharmacokinetic (PK) study of a roflumilast topical ophthalmic suspension was conducted. Data at Day 1 (Example 15), Day 8 (Example 16), and comparative data (Example 17) is provided.
The study was a Phase 1, double-masked, multiple-dose study conducted in healthy volunteers. The multiple-dose study was conducted over a single dose level where participants were randomly assigned to receive a masked dose of roflumilast topical ophthalmic suspension eye drops (n=14) or vehicle only (n=2) as set forth in Table 7, administered as a single drop in each eye BID (twice daily, every 12 hours) for seven days, followed by a single morning dose on Day 8.
Blood samples were collected at multiple time points on Days 1, 2, 8, and 9. The following nominal blood sampling time points were used for the PK assessment of roflumilast topical ophthalmic suspension and its main active metabolite on days 1 and 8:
Roflumilast topical ophthalmic suspension and roflumilast n-oxide (metabolite) concentrations in plasma were evaluated using Phoenix™ WinNonlin® version and 8.4 (Pharsight Corporation, USA). For both analytes, the upper limit of quantification (ULOQ) was […] and the lower limit of quantification (LLOQ) was […].
Analysis Procedures: Actual collection times were used for PK parameter determinations, calculated with respect to the dose time. Time points preceding Cmax, the first measurable concentration that was BLOQ were set to zero for PK parameter determination. Where the final plasma concentration was BLOQ, the concentration at the preceding time point was deemed to be the last measurable concentration for calculation of λz. AUC parameters were determined by the linear-up, log-down trapezoidal rule. λz was determined by log-linear regression obtained on at least the 3 last quantifiable concentrations (not including Cmax); the default “best fit” method by Phoenix WinNonlin was used for the selection of slopes to determine λz. In addition, every PK profile was scrutinized visually and adjustments made to the slope selection, where necessary. The goodness of fit of the regression was evaluated using the square of the correlation coefficient (adjusted R2) which was required to be at least 0.8 for the λz l value to be considered reliable. Regression-based parameters (AUC0-inf, t1/2) were calculated if the adjusted R2 value of the regression line was greater than or equal to 0.8 and residual area <20%. The time point where the ln-linear λz calculation begins (Lower) and the actual sampling time of the last measurable concentration used to estimate the λz (λz Upper) as well as the R2-adjusted for the ln-linear regression for the calculation of the elimination rate constant were listed.

[2] = parameters: AUC 0-∞: unit not given beside the values; settings: Observed PO (Day 1), single 500 μg dose; cited from earlier work
[3] = plasma, Day 8, mean (SD), topical ocular 0.3% BID 7 days + morning dose

**Q.** With `O=C(Nc1c(Cl)c[n+]([O-])cc1Cl)c1ccc(OC(F)F)c(OCC2CC2)c1` [Roflumilast N-oxide, 3-cyclopropylmethoxy-4-difluoromethoxy-N-(3,5-dichloropyrid-4-yl 1-oxide)benzamide] as the molecule, how does the mean plasma profile ([1]; Day 1, FIGS. 14-17) read?
**A.** The mean plasma profile was “increased over the 12 hours post-first dose”.

**Q.** And the “plasma levels relative to roflumilast” value ([1]; Day 1, FIGS. 16-17)?
**A.** Its value is “consistently higher than roflumilast after 2 hours”.

**Q.** And the “plasma profile, fluctuation between peak (Cmax) and trough (pre-dose)” value [1]?
**A.** The value was “very stable, showing little fluctuation”.

**Q.** What about the “mean peak plasma profile relative to parent” value ([1]; Day 8, FIGS. 22-23) of the same molecule?
**A.** Its value is “consistently higher than that of the parent”.

**Q.** And the “PTF % (percent peak-to-trough fluctuation)” value ([1]; Day 8, mean (SD))?
**A.** The value was 0.287 (0.223) %.

**Q.** What about the “RAUC0-12 (accumulation ratio)” value ([1]; Day 8, mean (SD)) of the same molecule?
**A.** Its value is 9.25 (2.92).

**Q.** What about the accumulation ratios (RAUC0-12) [1] of the same molecule?
**A.** Its accumulation ratios (RAUC0-12) is 9.25.

**Q.** What about the C12 ([1]; plasma, Day 1, mean, 12 hr post-first dose) of the same molecule?
**A.** The C12 was 1.37 ng/mL.

**Q.** What about the AUC0-t ([1]; plasma, Day 1, mean, to 12 hr post-first dose) of the same molecule?
**A.** Its AUC0-t is 9.38 ng·h/mL.

**Q.** What about the Clast ([1]; plasma, Day 1, mean, to 24 hr post-first dose) of the same molecule?
**A.** Its Clast is 3.49 ng/mL.

**Q.** And the Cmax ([1]; plasma, Day 1, mean, 0.3% suspension 1 drop each eye BID)?
**A.** The Cmax was 1.38 ng/mL.

**Q.** What about the Tmax ([1]; plasma, Day 1, median) of the same molecule?
**A.** Its Tmax is 11.83 h.

**Q.** And the AUC0-t ([1]; plasma, Day 8, mean (SD))?
**A.** The AUC0-t was 156 (79.3) h*ng/mL.

**Q.** And the AUC0-tau ([1]; plasma, Day 8, mean (SD))?
**A.** Its AUC0-tau is 78.4 (39.4) h*ng/mL.

**Q.** What about the AUC24 ([1]; plasma, Day 8, mean (SD)) of the same molecule?
**A.** Its AUC24 is 149 (77.4)** h*ng/mL.

**Q.** And the C12 trough ([1]; plasma, Day 8, mean (SD))?
**A.** The C12 trough was 6.33 (3.35) ng/mL.

**Q.** And the Cavg ([1]; plasma, Day 8, mean (SD))?
**A.** Its Cavg is 6.53 (3.29) ng/mL.

**Q.** What about the Cmax [1, 3] of the same molecule?
**A.** The Cmax was 7.93 (3.88) ng/mL.

**Q.** What about the Tmax ([1]; plasma, Day 8, median) of the same molecule?
**A.** Its Tmax is 1.00 h.

**Q.** For `O=C(Nc1c(Cl)cncc1Cl)c1ccc(OC(F)F)c(OCC2CC2)c1` [Roflumilast, N-(3,5-dichloropyrid-4-yl)-3-cyclopropylmethoxy-4-difluoromethoxybenzamide], which “AUC 0-∞” value [2] is on record?
**A.** Its value is 37.2 and 32.86.

**Q.** What about the “Plasma Cmax” value [2] of the same molecule?
**A.** Its value is 8.3 ng/mL.

**Q.** And the “accumulation from the AM to the PM dose (C12 vs Clast)” value ([1]; Day 1)?
**A.** Its value is roughly 2 fold.

**Q.** And the “plasma profile, fluctuation between peak (Cmax) and trough (pre-dose)” value [1]?
**A.** The value was “very stable, showing little fluctuation”.

**Q.** What about the “PTF % (percent peak-to-trough fluctuation)” value ([1]; Day 8, mean (SD)) of the same molecule?
**A.** The value was 0.893 (0.446) %.

**Q.** What about the “RAUC0-12 (accumulation ratio)” value ([1]; Day 8, mean (SD)) of the same molecule?
**A.** Its value is 2.63 (1.39).

**Q.** And the “plasma concentrations, topical ocular route compared to oral (PO) administration” value ([1]; FIGS. 24-26)?
**A.** Its value is “lower than those of PO-administered roflumilast; also recorded: significantly lower, producing a flatter concentration-time profile without a distinct Cmax peak”.

**Q.** And the “AUC0-tau Geometric Mean Ratio (Day 8/Day 1) (90% CI)” value ([1]; Group 1)?
**A.** Its value is 2.37 (1.90-2.94).

**Q.** What about the “C12 (trough) Difference in LS Means (Day 8 − Day 1) (90% CI)” value ([1]; Group 1) of the same molecule?
**A.** Its value is 0.66 (0.45-0.86).

**Q.** What about the “C12 (trough) Geometric Mean Ratio (Day 8/Day 1) (90% CI)” value ([1]; Group 1) of the same molecule?
**A.** The value was 1.93 (1.57-2.37).

**Q.** And the “Cmax Geometric Mean Ratio (Day 8/Day 1) (90% CI)” value ([1]; Group 1)?
**A.** Its value is 1.79 (1.41-2.27).

**Q.** What about the “C12 (trough) LS Means” value ([1]; Group 1, Day 1, n 14) of the same molecule?
**A.** The value was −1.44.

**Q.** What about the “C12 (trough) LS Means” value ([1]; Group 1, Day 8, n 14) of the same molecule?
**A.** Its value is −0.78.

**Q.** And the accumulation ratios (RAUC0-12) [1]?
**A.** The accumulation ratios (RAUC0-12) was 2.63.

**Q.** And the AUC ([1]; human, plasma, other: topical ophthalmic eye drops, 0.3 % suspension, single drop in each eye BID, Group 1, Day 1, read-out: AUC0-tau Geometric Mean)?
**A.** The AUC was 2.91 ng·h/mL.

**Q.** What about the concentration at 12 h ([1]; human, plasma, other: topical ophthalmic eye drops, 0.3 % suspension, single drop in each eye BID, Group 1, Day 1, read-out: C12 (trough) Geometric Mean) of the same molecule?
**A.** Its concentration at 12 h is 0.24 ng/mL.

**Q.** And the Cmax ([1]; human, plasma, other: topical ophthalmic eye drops, 0.3 % suspension, single drop in each eye BID, Group 1, Day 1, read-out: Cmax Geometric Mean)?
**A.** Its Cmax is 0.47 ng/mL.

**Q.** What about the AUC ([1]; human, plasma, other: topical ophthalmic eye drops, 0.3 % suspension, single drop in each eye BID, Group 1, Day 8, read-out: AUC0-tau Geometric Mean) of the same molecule?
**A.** Its AUC is 6.88 ng·h/mL.

**Q.** And the concentration at 12 h ([1]; human, plasma, other: topical ophthalmic eye drops, 0.3 % suspension, single drop in each eye BID, Group 1, Day 8, read-out: C12 (trough) Geometric Mean)?
**A.** The concentration at 12 h was 0.46 ng/mL.

**Q.** And the Cmax ([1]; human, plasma, other: topical ophthalmic eye drops, 0.3 % suspension, single drop in each eye BID, Group 1, Day 8, read-out: Cmax Geometric Mean)?
**A.** Its Cmax is 0.85 ng/mL.

**Q.** And the concentration at 12 h ([1]; human, plasma, other: topical ophthalmic eye drops, 0.3 % suspension, single drop in each eye BID, plasma, Day 1, mean, 12 hr post-first dose, read-out: C12)?
**A.** The concentration at 12 h was 0.29 ng/mL.

**Q.** And the AUC0-t ([1]; human, plasma, other: topical ophthalmic eye drops, 0.3 % suspension, single drop in each eye BID, plasma, Day 1, mean, to 12 hr post-first dose, read-out: AUC0-t)?
**A.** The AUC0-t was 3.6 ng·h/mL.

**Q.** What about the concentration at 24 h ([1]; human, plasma, other: topical ophthalmic eye drops, 0.3 % suspension, single drop in each eye BID, plasma, Day 1, mean, to 24 hr post-first dose, read-out: Clast) of the same molecule?
**A.** The concentration at 24 h was 0.51 ng/mL.

**Q.** What about the Cmax ([1]; human, plasma, other: topical ophthalmic eye drops, 0.3 % suspension, single drop in each eye BID, plasma, Day 1, mean, 0.3% suspension 1 drop each eye BID, read-out: Cmax) of the same molecule?
**A.** Its Cmax is 0.59 ng/mL.

**Q.** And the Tmax ([1]; human, plasma, other: topical ophthalmic eye drops, 0.3 % suspension, single drop in each eye BID, plasma, Day 1, median, read-out: Tmax)?
**A.** The Tmax was 2 h.

**Q.** And the AUC0-t ([1]; human, plasma, other: topical ophthalmic eye drops, 0.3 % suspension, single drop in each eye BID, plasma, Day 8, mean (SD), read-out: AUC0-t)?
**A.** The AUC0-t was 12.8 ng·h/mL.

**Q.** And the AUC ([1]; human, plasma, other: topical ophthalmic eye drops, 0.3 % suspension, single drop in each eye BID, plasma, Day 8, mean (SD), read-out: AUC0-tau)?
**A.** The AUC was 7.6 ng·h/mL.

**Q.** And the AUC ([1]; human, plasma, other: topical ophthalmic eye drops, 0.3 % suspension, single drop in each eye BID, plasma, Day 8, mean (SD), read-out: AUC24)?
**A.** Its AUC is 12.8 ng·h/mL.

**Q.** And the concentration at 12 h ([1]; human, plasma, other: topical ophthalmic eye drops, 0.3 % suspension, single drop in each eye BID, plasma, Day 8, mean (SD), read-out: C12 trough)?
**A.** Its concentration at 12 h is 0.5 ng/mL.

**Q.** What about the Tmax ([1]; human, plasma, other: topical ophthalmic eye drops, 0.3 % suspension, single drop in each eye BID, plasma, Day 8, median, read-out: Tmax) of the same molecule?
**A.** Its Tmax is 1 h.

**Q.** What about the Cmax ([1]; human, plasma, topical or ocular, 0.3 % suspension, single drop in each eye BID, plasma, Day 8, mean (SD), topical ocular 0.3% BID 7 days + morning dose, read-out: Cmax) of the same molecule?
**A.** Its Cmax is 0.94 ng/mL.

**Q.** And the Cavg ([1]; plasma, Day 8, mean (SD))?
**A.** The Cavg was 0.63 (0.30) ng/mL.

**Q.** And the Cmax [1, 3]?
**A.** The Cmax was 0.94 (0.46) ng/mL.
